# Patent US12091402B2 (Avilar Therapeutics, Inc., priority 2021, dated 2024)
# pKd: −log10 of the molar value.
# Target: T1, ASGPR (Homo sapiens, UniProt P07306)
# T1 sequence (P07306 1-291): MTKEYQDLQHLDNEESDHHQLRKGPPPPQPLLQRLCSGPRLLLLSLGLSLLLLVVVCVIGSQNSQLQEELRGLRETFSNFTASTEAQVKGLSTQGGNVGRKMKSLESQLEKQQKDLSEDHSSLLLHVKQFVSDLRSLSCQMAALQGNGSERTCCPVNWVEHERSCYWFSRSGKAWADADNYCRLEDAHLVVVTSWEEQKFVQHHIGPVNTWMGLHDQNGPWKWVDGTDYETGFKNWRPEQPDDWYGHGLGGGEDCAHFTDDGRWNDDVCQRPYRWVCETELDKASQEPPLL
# Test: Affinity to ASGPR by surface plasmon resonance (SPR)
row,SMILES,pKd
1,"O[C@@H]1[C@H](O)[C@@H](Nc2nccc(C(F)(F)F)n2)CO[C@@H]1c1nc2ccc(Br)cc2[nH]1 [A94, (2R,3R,4R,5S)-2-(6-bromo-1H-benzo[d]imidazol-2-yl)-5-((4-(trifluoromethyl)pyrimidin-2-yl)amino)tetrahydro-2H-pyran-3,4-diol]",< 4.70
2,"C[C@@H]1O[C@H](CO)[C@H](O)[C@H](O)[C@H]1Nc1nccc(C(F)(F)F)n1 [A55, (2R,3R,4R,5R,6S)-2-(hydroxymethyl)-6-methyl-5-((4-(trifluoromethyl)pyrimidin-2-yl)amino)tetrahydro-2H-pyran-3,4-diol]",4.00 to 5.00
3,"OC[C@H]1OC[C@H](Nc2cc(C(F)(F)F)nc(Cl)n2)[C@@H](O)[C@H]1O [A78, (2R,3R,4R,5S)-5-((2-chloro-6-(trifluoromethyl)pyrimidin-4-yl)amino)-2-(hydroxymethyl)tetrahydro-2H-pyran-3,4-diol]",< 4.70
4,"C[C@@H]1O[C@H](CO)[C@H](O)[C@H](O)[C@H]1N=[N+]=[N-] [A50, (2R,3R,4R,5R,6S)-5-azido-2-(hydroxymethyl)-6-methyltetrahydro-2H-pyran-3,4-diol]",< 4.70
5,"C=CCO[C@H]1O[C@H](Cn2cc(-c3cccc(OC)c3)nn2)[C@H](O)[C@H](O)[C@H]1NC(=O)C(F)(F)F [A57, N-((2S,3R,4R,5R,6R)-2-(allyloxy)-4,5-dihydroxy-6-((4-(3-methoxyphenyl)-1H-1,2,3-triazol-1-yl)methyl)tetrahydro-2H-pyran-3-yl)-2,2,2-trifluoroacetamide]",5.00 to 6.00
6,"O[C@@H]1[C@H](O)[C@@H](Nc2cncc(C(F)(F)F)n2)CO[C@@H]1CN1CCCCC1 [A96, (2R,3R,4R,5S)-2-(piperidin-1-ylmethyl)-5-((6-(trifluoromethyl)pyrazin-2-yl)amino)tetrahydro-2H-pyran-3,4-diol]",5.00 to 6.00
7,"N=C(N)N[C@H]1CO[C@H](COCc2ccccc2)[C@H](OCc2ccccc2)[C@@H]1OCc1ccccc1 [A73, 1-((3S,4R,5R,6R)-4,5-bis(benzyloxy)-6-((benzyloxy)methyl)tetrahydro-2H-pyran-3-yl)guanidine]",< 4.70
8,"COCCO[C@@H]1O[C@H](CO)[C@H](O)[C@H](O)[C@H]1Nc1cncc(C(F)(F)F)n1 [A105, (2R,3R,4R,5R,6R)-2-(hydroxymethyl)-6-(2-methoxyethoxy)-5-((6-(trifluoromethyl)pyrazin-2-yl)amino)tetrahydro-2H-pyran-3,4-diol]",5.00 to 6.00
9,"C[Si](C)(C)c1cn(C[C@H]2OC[C@H](Nc3nccc(C(F)(F)F)n3)[C@@H](O)[C@H]2O)nn1 [A66, (2R,3R,4R,5S)-5-((4-(trifluoromethyl)pyrimidin-2-yl)amino)-2-((4-(trimethylsilyl)-1H-1,2,3-triazol-1-yl)methyl)tetrahydro-2H-pyran-3,4-diol]",5.00 to 6.00
10,"OC[C@H]1OC[C@H](Nc2ccc(F)c(C(F)(F)F)n2)[C@@H](O)[C@H]1O [A82, (2R,3R,4R,5S)-5-((5-fluoro-6-(trifluoromethyl)pyridin-2-yl)amino)-2-(hydroxymethyl)tetrahydro-2H-pyran-3,4-diol]",5.00 to 6.00
11,"C=CCO[C@H]1O[C@H](Cn2cc(CO)nn2)[C@H](O)[C@H](O)[C@H]1NC(=O)C(F)(F)F [A63, N-((2S,3R,4R,5R,6R)-2-(allyloxy)-4,5-dihydroxy-6-((4-(hydroxymethyl)-1H-1,2,3-triazol-1-yl)methyl)tetrahydro-2H-pyran-3-yl)-2,2,2-trifluoroacetamide]",5.00 to 6.00
12,"OC[C@@]12CO[C@@H](O1)[C@H](Nc1ncc3c(C(F)(F)F)n[nH]c3n1)[C@@H](O)[C@H]2O [A37, (1S,2R,3R,4R,5S)-1-(hydroxymethyl)-4-((3-(trifluoromethyl)-1H-pyrazolo[3,4-d]pyrimidin-6-yl)amino)-6,8-dioxabicyclo[3.2.1]octane-2,3-diol]",< 4.70
13,"OC[C@H]1OCC(Nc2cc(C(F)(F)F)[nH]n2)[C@@H](O)[C@H]1O (stereo in doubt) [A93, (2R,3R,4R,5S)-2-(hydroxymethyl)-5-((5-(trifluoromethyl)-1H-pyrazol-3-yl)amino)tetrahydro-2H-pyran-3,4-diol]",< 7.00
14,"C=CCO[C@H]1O[C@H](CO)[C@H](O)[C@H](O)[C@H]1N [A52, (2R,3R,4R,5R,6S)-6-(allyloxy)-5-amino-2-(hydroxymethyl)tetrahydro-2H-pyran-3,4-diol]",< 4.70

# Other lines, results leading:
row,pKd,SMILES
1,5.00 to 6.00,"OC[C@H]1OC[C@H](Nc2ncnn3cccc23)[C@@H](O)[C@H]1O [A49, (2R,3R,4R,5S)-2-(hydroxymethyl)-5-(pyrrolo[2,1-f][1,2,4]triazin-4-ylamino)tetrahydro-2H-pyran-3,4-diol]"
2,> 7.00,NC(COCCC(=O)NCCOCCOCCOCCOC[C@H]1OC[C@H](Nc2cncc(C(F)(F)F)n2)[C@@H](O)[C@H]1O)COCCC(=O)NCCOCCOCCOCCOC[C@H]1OC[C@H](Nc2cncc(C(F)(F)F)n2)[C@@H](O)[C@H]1O [A131]
3,5.00 to 6.00,"COC(=N)c1cc(OC)nc(N[C@H]2CO[C@H](CO)[C@H](O)[C@@H]2O)n1 [A48, methyl 2-(((3S,4R,5R,6R)-4,5-dihydroxy-6-(hydroxymethyl)tetrahydro-2H-pyran-3-yl)amino)-6-methoxypyrimidine-4-carbimidate]"
4,> 6.00,O[C@@H]1[C@H](O)[C@@H](Nc2cncc(C(F)(F)F)n2)CO[C@@H]1CNc1cnccn1 [A122]
5,> 7.00,"[N-]=[N+]=NCCCCCC(=O)NC(COCc1cn(CCOCCOCCOCCOC[C@H]2OC[C@H](Nc3nccc(C(F)(F)F)n3)[C@@H](O)[C@H]2O)nn1)COCc1cn(CCOCCOCCOCCOC[C@H]2OC[C@H](Nc3nccc(C(F)(F)F)n3)[C@@H](O)[C@H]2O)nn1 [A15, 6-azido-N-(1,3-bis((1-(1-((2R,3R,4R,5S)-3,4-dihydroxy-5-((4-(trifluoromethyl)pyrimidin-2-yl)amino)tetrahydro-2H-pyran-2-yl)-2,5,8,11-tetraoxatridecan-13-yl)-1H-1,2,3-triazol-4-yl)methoxy)propan-2-yl)hexanamide]"
6,> 7.00,"O=[N+]([O-])c1ccc(NCCOCCOCCOCCOC[C@H]2OC[C@@H](Nc3nc(Cl)ns3)[C@@H](O)[C@H]2O)c([N+](=O)[O-])c1 [Compound 24, (2R,3R,4R,5R)-5-((3-chloro-1,2,4-thiadiazol-5-yl)amino)-2-(13-((2,4-dinitrophenyl)amino)-2,5,8,11-tetraoxatridecyl)tetrahydro-2H-pyran-3,4-diol]"
7,> 6.00,"COc1cccc(N(C)C[C@H]2OC[C@H](Nc3cncc(C(F)(F)F)n3)[C@@H](O)[C@H]2O)c1 [A106, (2R,3R,4R,5S)-2-(((3-methoxyphenyl)(methyl)amino)methyl)-5-((6-(trifluoromethyl)pyrazin-2-yl)amino)tetrahydro-2H-pyran-3,4-diol]"
8,> 6.00,"[N-]=[N+]=NC[C@H]1OC[C@H](Nc2nccc(C(F)(F)F)n2)[C@@H](O)[C@H]1O [A59, (2R,3R,4R,5S)-2-(azidomethyl)-5-((4-(trifluoromethyl)pyrimidin-2-yl)amino)tetrahydro-2H-pyran-3,4-diol]"
9,> 6.00,"OCc1cn(C[C@H]2OC[C@H](Nc3nccc(C(F)(F)F)n3)[C@@H](O)[C@H]2O)nn1 [A68, (2R,3R,4R,5S)-2-((4-(hydroxymethyl)-1H-1,2,3-triazol-1-yl)methyl)-5-((4-(trifluoromethyl)pyrimidin-2-yl)amino)tetrahydro-2H-pyran-3,4-diol]"
10,> 7.00,"O=C(O)COc1ccc(COC[C@H]2OC[C@H](Nc3cncc(C(F)(F)F)n3)[C@@H](O)[C@H]2O)cc1 [A19, 2-(4-((((2R,3R,4R,5S)-3,4-dihydroxy-5-((6-(trifluoromethyl)pyrazin-2-yl)amino)tetrahydro-2H-pyran-2-yl)methoxy)methyl)phenoxy)acetic acid]"
11,> 7.00,"O=C(O)COCCOCC(=O)NC(COCCC(=O)NCCOCCOCCOCCOC[C@H]1OC[C@H](Nc2nccc(C(F)(F)F)n2)[C@@H](O)[C@H]1O)COCCC(=O)NCCOCCOCCOCCOC[C@H]1OC[C@H](Nc2nccc(C(F)(F)F)n2)[C@@H](O)[C@H]1O [A24, 1-((2R,3R,4R,5S)-3,4-dihydroxy-5-((4-(trifluoromethyl)pyrimidin-2-yl)amino)tetrahydro-2H-pyran-2-yl)-20-(1-((2R,3R,4R,5S)-3,4-dihydroxy-5-((4-(trifluoromethyl)pyrimidin-2-yl)amino)tetrahydro-2H-pyran-2-yl)-15-oxo-2,5,8,11,18-pentaoxa-14-azanonadecan-19-yl)-15,22-dioxo-2,5,8,11,18,24,27-heptaoxa-14,21-diazanonacosan-29-oic acid]"
12,> 6.00,"COc1cccc(-c2cn(C[C@H]3OC[C@H](Nc4nccc(C(F)(F)F)n4)[C@@H](O)[C@H]3O)nn2)c1 [A65, (2R,3R,4R,5S)-2-((4-(3-methoxyphenyl)-1H-1,2,3-triazol-1-yl)methyl)-5-((4-(trifluoromethyl)pyrimidin-2-yl)amino)tetrahydro-2H-pyran-3,4-diol]"
13,> 6.00,"OC[C@H]1O[C@H](OCC2CO2)[C@H](Nc2nccc(C(F)(F)F)n2)[C@@H](O)[C@H]1O (stereo partly drawn) [A76, (2R,3R,4R,5R,6S)-2-(hydroxymethyl)-6-(oxiran-2-ylmethoxy)-5-((4-(trifluoromethyl)pyrimidin-2-yl)amino)tetrahydro-2H-pyran-3,4-diol]"
14,> 7.00,"O=C(O)CNC(COCCC(=O)NCCOCCOCCOCCOC[C@H]1OC[C@H](Nc2cncc(C(F)(F)F)n2)[C@@H](O)[C@H]1O)COCCC(=O)NCCOCCOCCOCCOC[C@H]1OC[C@H](Nc2cncc(C(F)(F)F)n2)[C@@H](O)[C@H]1O [A31, (1,39-bis((2R,3R,4R,5S)-3,4-dihydroxy-5-((6-(trifluoromethyl)pyrazin-2-yl)amino)tetrahydro-2H-pyran-2-yl)-15,25-dioxo-2,5,8,11,18,22,29,32,35,38-decaoxa-14,26-diazanonatriacontan-20-yl)glycine]"
